Key:
[1] = test system: Drp1 S637 phosphorylation in 3T3-L1 adipocytes; assay: Immunoblot of phospho-Drp1 (S637) in 3T3-L1 adipocytes after forskolin; type: cell-based, murine; settings: pretreated with 50 μM RBC8 or DMSO for 30 min, then 5 μM forskolin
From the text: Immunoblotting of phospho-Drp1 S637, total Drp1 and β-Tubulin in iWAT of HFD-fed Rala^f/f (n=10) and Rala^AKO (n=13) mice. FIGS. 12B and 12C: Immunoblotting (FIG. 12B) and quantification (FIG. 12C) of phospho-Drp1(S637), total Drp1, and β-Tubulin in eWAT of HFD-fed Rala^f/f (n=8) and Rala^AKO (n=12) mice. FIGS. 12D and 12E: Immunoblotting (FIG. 12D) and quantification (FIG. 12E) of phospho-Drp1(S637), total Drp1 and β-Actin in iWAT of CD-fed mice. Non-fasted Rala^f/f (vehicle n=3, CL n=4) and Rala^AKO (vehicle n=3, CL n=5) mice fed with CD were i.p. injected with 1 mg/kg CL for 30 min. P=0.0054, P=0.0135 (FIG. 12E). FIGS. 12F and 12G: Immunoblotting (FIG. 12F) and quantification (FIG. 12G) of phospho-Drp1(S637), total Drp1, RalA, and β-Actin in fully differentiated primary adipocytes (n=4 biological samples). P=0.0085, P=0.0046 (FIG. 12G). […] FIGS. 12H and 12I: Immunoblotting (FIG. 12H) and quantification (FIG. 12I) of phospho-Drp1(S637), total Drp1, RalA, and β-Actin in immortalized adipocytes (n=4 biological samples). […] FIGS. 12J and 12K: Immunoblotting (FIG. 12J) and quantification (FIG. 12K) of phospho-Drp1(S637), total Drp1, and β-Actin in 3T3-L1 adipocytes (n=4 biological samples). […] FIGS. 12M and 12N: Quantification of phospho-HSL (S660) and HSL in primary (FIG. 12M) and immortalized adipocytes (FIG. 12N) treated with CL for indicated time (n=4 biological samples). […]

[2] = test system: Drp1 S637 phosphorylation in human primary adipocyte cell line SGBS; assay: Immunoblot of phospho-Drp1 (S637) in human primary adipocytes (SGBS) after forskolin; type: cell-based; settings: SGBS cells; pretreated with 50 μM RBC8 or DMSO for 30 min, then 20 μM forskolin
Procedure: FIGS. 5A-5J. […] FIG. 5A: Quantification of phospho-Drp1 (S637) and total Drp1 in iWAT of HFD-fed Rala^f/f (n=10) and Rala^AKO (n=13) mice; P=0.0001. FIGS. 5B and 5C: Immunoblotting (FIG. 5B) and quantification (FIG. 5C) of phospho-Drp1 (S637) and total Drp1 in immortalized adipocytes (n=4 biological samples); P=0.0125 (FIG. 5C). Adipocytes were treated with 20 μM forskolin (Fsk) for indicated time. FIGS. 5D and 5E: Immunoblotting (FIG. 5D) and quantification of phospho-Drp1 (S637) and total Drp1 in human primary adipocytes (SGBS) (n=4 biological samples). […] Significance in correlation was assessed by Spearman's correlation test (FIGS. 5H, and 5J). […]
Tissues or cells were lysed or homogenized in RIPA buffer with freshly added Halt Protease and Phosphatase Inhibitor Cocktail (Thermo Fisher). […] Cleared supernatants were collected and concentrations were determined with a BCA protein assay kit (Pierce) and iTecan plate reader for quantification. […] Individual 10 proteins were detected with the specific antibodies (OXPHOS ab110413, β-tubulin 2146S, phospho-Drp1 (Ser637) 4867S, phospho-HSL (Ser660) 45804S, HSL 4107S, MYC 2276S, Drp1 8570S, phosphor-AMPK (Thr172) 2535S, AMPK 5831S, RalA BD610221, β-actin 66009-1-Ig, Flag 66008-4-Ig, GFP 66002-1-Ig, and Sec512751-1-AP). […] Bands were quantified with ImageStudio or ImageJ.

SMILES: COc1ccc(OC)c(C2C(C#N)=C(N)Oc3n[nH]c(-c4ccc5ccccc5c4)c32)c1 (centres unmarked) [RBC8]
- forskolin-stimulated Drp1 S637 phosphorylation [1]: significantly increased forskolin-stimulated Drp1 S637 phosphorylation
- forskolin-stimulated Drp1 S637 phosphorylation [2]: increased forskolin-stimulated Drp1 S637 phosphorylation
